Test results published in patent publication US20250250284A1, “MACROCYCLE COMPOUNDS USEFUL AS KRAS INHIBITORS” (Hoffmann-La Roche Inc., priority 2022, published 2025).

What was measured:
KRAS G12C-BRAF complex = KRAS G12C-BRAF complex (Homo sapiens (Human), UniProt P01116+P62937, G12C); assay: KRAS-BRAF with CYPA (500 nM) interaction assay (TR-FRET), G12C; type: binding; settings: GMPPNP loaded 6His-KRAS, GST-BRAF RBD, 3 hours
Procedure: (§1) KRAS-BRAF with CYPA (500 nM) Interaction Assay
(§2) In this example, TR-FRET was also used to measure the compound or compound-CYPA dependent disruption of the KRAS G12C-BRAF complex. This protocol was also used to measure disruption of KRAS G12D or KRAS G12V binding to BRAF by a compound of the invention, respectively. In assay buffer containing 25 mM HEPES PH=7.4 (4-(2-hydroxyethyl)-1-piperazineethanesulfonic acid, Thermo, 15630080), 0.002% Tween20, 0.1% BSA, 100 mM NaCl, 5 mM MgCl2, 10 μM GMPPNP (Guanosine 5′-[β,γ-imido]triphosphate trisodium salt hydrate, Sigma, G0635), tagless CYPA, GMPPNP loaded 6His-KRAS proteins, and GST-BRAF^RBD were mixed in a well of a 384-well assay plate at final concentrations of 50 nM, 6.25 nM and 1 nM, respectively. Compound was present in plate wells as a 16-point 3-fold dilution series starting at a final concentration of 10 μM and incubated for 3 hours. A mixture of MAb Anti-6His-XL665 (Cisbio, 61HISXLB) and Mab anti-GST-TB cryptate (Cisbio, 61GSTTLB) was then added at a final concentration of 6.67 nM and 0.21 nM, respectively, and the plate was incubated for an additional 1.5 hours. TR-FRET signal was read on a PHERstar FSX microplate reader (Ex320 nm, Em 665/615 nm). Compounds that facilitate disruption of the KRAS-BRAF complex were identified as those eliciting a decrease in the TR-FRET ratio relative to DMSO control wells.

[1] = tested on: phosphorylation of ERK, KRAS G12V in SW620; assay: pERK inhibition assay, KRAS G12V; type: cell-based; settings: Homo sapiens, SW-620; SW620 cells, 4 hours of incubation
Procedure: (§3) This assay is to measure the ability of test compounds in inhibiting the phosphorylation of ERK, the downstream signaling of KRAS G12C in NCI-H358 cells, KRAS G12D in AGS cells, and KRAS G12V in SW620. NCI-H358 (ATCC-CRL5807) cells, AGS (ATCC-CRL-1739) cells, SW620 (ATCC-CCL-227) cells were all grown and maintained using RPMI-1640 medium (Thermo Fisher Scientific) with 10% fetal bovine serum and 1% penicillin/streptomycin. On the day prior to compound addition, cells were plated in tissue culture-treated 96 well plates (Corning-3699) at a density of 30,000 cell/well, 20,000 cell/well, 30,000 cell/well for NCI-H358, AGS and SW620 respectively, and allowed for attachment overnight. Diluted compounds were then added in a final concentration of 0.5% DMSO. After 4 hours of incubation, the medium was removed, 100 μL of 4% formaldehyde was added, and the assay plates were incubated at room temperature for 20 minutes. The plates were then washed once with phosphate buffered saline (PBS), and permeabilized with 100 μL of chilled methanol for 10 minutes. Non-specific antibody binding to the plates was blocked using 50 μL 1×BSA blocking buffer (Thermo-37520, 10-fold dilution by Phosphate-Buffered Saline Tween (PBST) for at least 1 hour at room temperature.
(§4) The amount of phosphor-ERK was determined using an antibody specific for phosphorylated form of ERK. Primary antibody (pERK, CST-4370, Cell Signaling Technology) was diluted 1:300 in blocking buffer, with 50 μL aliquoted to each well, and incubated overnight at 4° C. Cells was washed five times for 5 minutes with PBST. Secondary antibody (HRP-linked anti-rabbit IgG, CST-7074, Cell Signaling Technology) was diluted 1:1000 in blocking buffer, and 50 μL was added to each well and incubated 1-2 hrs at room temperature. Cells was washed 5 times for 5 minutes with PBST, 100 μL TMB ELISA substrate (abcam-ab171523) were added and gently shake for 20 minutes. 50 μL stop solution (abcam-ab171529) were added, and then read the signal (OD450) by EnVision.
(§5) IC50 was determined by fitting a 4-parameter sigmoidal concentration response model.

[2] = target: KRAS G12D binding to BRAF (Homo sapiens (Human), UniProt P01116+P62937, G12D); assay: KRAS-BRAF with CYPA (500 nM) interaction assay (TR-FRET), G12D; settings: GMPPNP loaded 6His-KRAS, GST-BRAF RBD, 3 hours
Sequence of KRAS G12D binding to BRAF (P01116-2 other isoform, or with tags, fused parts or gaps G12D): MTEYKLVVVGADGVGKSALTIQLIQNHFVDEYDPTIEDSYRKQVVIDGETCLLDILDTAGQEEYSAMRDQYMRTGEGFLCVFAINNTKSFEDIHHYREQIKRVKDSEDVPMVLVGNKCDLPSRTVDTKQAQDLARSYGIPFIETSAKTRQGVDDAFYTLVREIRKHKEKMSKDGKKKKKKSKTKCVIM
Sequence of KRAS G12D binding to BRAF (P62937 whole entry): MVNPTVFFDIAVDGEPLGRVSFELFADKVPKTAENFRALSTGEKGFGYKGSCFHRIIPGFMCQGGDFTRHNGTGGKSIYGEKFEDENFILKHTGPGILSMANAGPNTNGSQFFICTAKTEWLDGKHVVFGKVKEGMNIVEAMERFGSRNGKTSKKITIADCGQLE
Procedure: as §1, §2

[3] = target: KRAS G12V binding to BRAF (Homo sapiens (Human), UniProt P01116+P62937, G12V); assay: KRAS-BRAF with CYPA (500 nM) interaction assay (TR-FRET), G12V; settings: GMPPNP loaded 6His-KRAS, GST-BRAF RBD, 3 hours
Sequence of KRAS G12V binding to BRAF (P01116-2 other isoform, or with tags, fused parts or gaps G12V): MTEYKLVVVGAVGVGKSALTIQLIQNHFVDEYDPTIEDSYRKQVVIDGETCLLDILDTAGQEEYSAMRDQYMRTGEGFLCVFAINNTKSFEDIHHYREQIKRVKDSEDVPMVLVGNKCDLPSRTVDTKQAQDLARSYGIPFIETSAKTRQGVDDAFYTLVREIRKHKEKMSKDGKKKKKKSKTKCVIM
Sequence of KRAS G12V binding to BRAF (P62937 whole entry): as the sequence (P62937 whole entry) above
Procedure: as §1, §2

AGS cells = assay: Cell viability assay (Cell Counting Kit-8), KRAS G12D; type: cell-based; settings: Homo sapiens, 72 hrs incubation, CCK-8
Procedure: (§6) The purpose of this cellular assay was to determine the effects of test compounds on the proliferation of human cancer cell lines NCI-H358 (ATCC-CRL5807) cells, AGS (ATCC-CRL-1739) cells, SW620 (ATCC-CCL-227) over a 3-day treatment period by quantifying the amount of NADPH present at endpoint using Cell Counting Kit-8.
(§7) Cells were seeded at 5,000 cells/well (NCI-H358), 2,000 cells/well (AGS) 2,000 cells/well (SW620) in 96-well assay plates (Corning-3699) and incubated overnight. On the day of the assay, diluted compounds were then added in a final concentration of 0.5% DMSO. After 72 hrs incubation, a tenth of the volume of cell counting kit 8 (Dnjindo-CK04) was added into each well. Read the signal (OD450 minus OD650) using EnVision after 2 hrs incubation. IC50 was determined by fitting a 4-parameter sigmoidal concentration response model.

[4] = tested on: phosphorylation of ERK, KRAS G12D in AGS cells; assay: pERK inhibition assay, KRAS G12D; type: cell-based; settings: Homo sapiens, 4 hours of incubation
Procedure: as §3, §4, §5

[5] = tested on: phosphorylation of ERK, KRAS G12C in NCI-H358 cells; assay: pERK inhibition assay, KRAS G12C; type: cell-based; settings: Homo sapiens, 4 hours of incubation
Procedure: as §3, §4, §5

SW620 cells = assay: Cell viability assay (Cell Counting Kit-8), KRAS G12V; type: cell-based; settings: Homo sapiens, SW-620, 72 hrs incubation, CCK-8
Procedure: as §6, §7

NCI-H358 cells = assay: Cell viability assay (Cell Counting Kit-8), KRAS G12C; type: cell-based; settings: Homo sapiens, 72 hrs incubation, CCK-8
Procedure: as §6, §7

Sequence of KRAS G12C-BRAF complex (P01116-2 other isoform, or with tags, fused parts or gaps G12C): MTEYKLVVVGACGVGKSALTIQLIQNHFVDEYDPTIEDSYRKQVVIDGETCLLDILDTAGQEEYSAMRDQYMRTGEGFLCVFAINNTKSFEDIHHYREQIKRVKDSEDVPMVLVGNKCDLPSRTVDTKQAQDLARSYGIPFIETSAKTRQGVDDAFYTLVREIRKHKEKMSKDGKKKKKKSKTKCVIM
Sequence of KRAS G12C-BRAF complex (P62937 whole entry): as the sequence (P62937 whole entry) above

| Compound | IC50 (KRAS G12C-BRAF complex) [µM] | IC50 [1] [µM] | IC50 [2] [µM] | IC50 [3] [µM] | IC50 (AGS cells) [µM] | IC50 [4] [µM] | IC50 [5] [µM] | IC50 (SW620 cells) [µM] | IC50 (NCI-H358 cells) [µM] |
| --- | --- | --- | --- | --- | --- | --- | --- | --- | --- |
| CCn1c(-c2cc(N3CCN(C)CC3)cnc2[C@H](C)OC)c2c3cc(c(F)cc31)-c1csc(n1)C[C@H](NC(=O)[C@H]1C[C@@H]1C(F)F)C(=O)N1CCC[C@H](N1)C(=O)OCC(C)(C)C2 (atropisomer, axis not shown; (M)) [Example 3, (1S,2S)-2-(difluoromethyl)-N-[(7S,13S)-21-ethyl-24-fluoro-(20M)-20-[2-[(1S)-1-methoxyethyl]-5-(4-methylpiperazin-1-yl)-3-pyridyl]-17,17-dimethyl-8,14-dioxo-15-oxa-4-thia-9,21,27,28-tetrazapentacyclo[17.5.2.1^2,5.1^9,13.0^22,26]octacosa-1(25),2,5(28),19,22(26),23-hexaen-7-yl]cyclopropanecarboxamide] | 0.196 | 0.005 | 1.72 | 0.243 | 0.197 | 0.029 | 0.011 | 0.008 | 0.0116 |
| CO[C@@H](C)c1ncc(N2CCN(C)CC2)cc1-c1c2c3c(F)c(ccc3n1CC(F)(F)F)-c1csc(n1)C[C@H](NC(=O)[C@H]1C[C@@H]1C)C(=O)N1CCC[C@H](N1)C(=O)OCC(C)(C)C2 (atropisomer, axis not shown; (M)) [Example 10, (1S,2S)—N-[(7S,13S)-25-fluoro-(20M)-20-[2-[(1S)-1-methoxyethyl]-5-(4-methylpiperazin-1-yl)-3-pyridyl]-17,17-dimethyl-8,14-dioxo-21-(2,2,2-trifluoroethyl)-15-oxa-4-thia-9,21,27,28-tetrazapentacyclo[17.5.2.1^2,5.1^9,13.0^22,26]octacosa-1(25),2,5(28),19,22(26),23-hexaen-7-yl]-2-methyl-cyclopropanecarboxamide] | 0.009 | 0.002 | 0.02 | 0.013 | 0.013 | 0.011 | 0.017 | 0.003 | 0.012 |
| CCn1c(-c2cc(N3CCN(C)CC3)cnc2[C@H](C)OC)c2c3cc(c(F)cc31)-c1csc(n1)C[C@H](NC(=O)[C@H]1[C@@H]3COC[C@@H]31)C(=O)N1CCC[C@H](N1)C(=O)OCC(C)(C)C2 (atropisomer, axis not shown; (M)) [Example 2, (1R,5S)—N-[(7S,13S)-21-ethyl-24-fluoro-(20M)-20-[2-[(1S)-1-methoxyethyl]-5-(4-methylpiperazin-1-yl)-3-pyridyl]-17,17-dimethyl-8,14-dioxo-15-oxa-4-thia-9,21,27,28-tetrazapentacyclo[17.5.2.1^2,5.1^9,13.0^22,26]octacosa-1(25),2,5(28),19,22(26),23-hexaen-7-yl]-3-oxabicyclo[3.1.0]hexane-6-carboxamide] | 0.134 | 0.003 | 0.957 | 0.174 | 0.059 | 0.018 | 0.009 | 0.005 | 0.011 |
| CCn1c(-c2cc(N3CCN(C)CC3)cnc2[C@H](C)OC)c2c3cc(c(F)cc31)-c1csc(n1)C[C@H](NC(=O)[C@H]1C[C@@H]1C)C(=O)N1CCC[C@H](N1)C(=O)OCC(C)(C)C2 (atropisomer, axis not shown; (M)) [Example 1, (1S,2S)—N-[(7S,13S)-21-ethyl-24-fluoro-(20M)-20-[2-[(1S)-1-methoxyethyl]-5-(4-methylpiperazin-1-yl)-3-pyridyl]-17,17-dimethyl-8,14-dioxo-15-oxa-4-thia-9,21,27,28-tetrazapentacyclo[17.5.2.1^2,5.1^9,13.0^22,26]octacosa-1(25),2,5(28),19,22(26),23-hexaen-7-yl]-2-methyl-cyclopropanecarboxamide] | 0.108 | 0.004 | 0.915 | 0.211 | 4.63 | 0.034 | 0.011 | 0.009 | 0.018 |
